From ChEMBL document CHEMBL1138648, “Synthesis of new N-(2-(trifluoromethyl)pyridin-4-yl)anthranilic acid derivatives and their evaluation as anticancer agents” (2004)

How the values were obtained:
Type in all cases: functional
BT-549 = assay: Growth inhibitory activity against Breast cancer BT-549 cell line was determined; conditions: Homo sapiens
MCF7 [1] = assay: Growth inhibitory activity against Breast cancer MCF-7 cell line was determined; conditions: Homo sapiens
HL-60 = assay: Growth inhibitory activity against Leukemia HL-60(TB) cell line was determined; conditions: Homo sapiens
OVCAR-3 = assay: Growth inhibitory activity against Ovarian cancer OVCAR-3 cell line was determined; conditions: Homo sapiens
Hs-578T = assay: Growth inhibitory activity against Breast cancer HS 578T cell line was determined; conditions: Homo sapiens
MDA-MB-231 = assay: Growth inhibitory activity against Breast cancer MDA-MB-231/ATCC cell line was determined; conditions: Homo sapiens
NCI-H322M = assay: Growth inhibitory activity against non small cell lung cancer NCI-H322M cell line was determined; conditions: Homo sapiens
LOX IMVI = assay: Growth inhibitory activity against Melanoma LOX IMVI cell line; conditions: Homo sapiens
DU-145 = assay: Growth inhibitory activity against Prostate cancer DU-145 cell line was determined; conditions: Homo sapiens
SW-620 = assay: Growth inhibitory activity against colon cancer SW-620 cell line was determined; conditions: Homo sapiens
MOLT-4 = assay: Growth inhibitory activity against Leukemia MOLT-4 cell line was determined; conditions: Homo sapiens
NCI-H460 [2] = assay: In vitro percent of proliferation of vehicle treated NCI-H460 human lung cell lines was determined at 0.0010 M concentration
OVCAR-8 = assay: Growth inhibitory activity against Ovarian cancer OVCAR-8 cell line was determined; conditions: Homo sapiens
HOP-62 = assay: Growth inhibitory activity against non small cell lung cancer HOP-62 cell line was determined; conditions: Homo sapiens
SK-MEL-5 = assay: Growth inhibitory activity against Melanoma SK-MEL-5 cell line was determined; conditions: Homo sapiens
NCI-H522 = assay: Growth inhibitory activity against non small cell lung cancer H522 cell line was determined; conditions: Homo sapiens
HCT-116 = assay: Growth inhibitory activity against colon cancer HCT116 cell line was determined; conditions: Homo sapiens
ACHN = assay: Growth inhibitory activity against Renal cancer ACHN cell line was determined; conditions: Homo sapiens
U-251 = assay: Growth inhibitory activity against CNS cancer U251 cell line was determined; conditions: Homo sapiens
EKVX = assay: Growth inhibitory activity against non small cell lung cancer EKVX cell line was determined; conditions: Homo sapiens
SF-268 [3] = assay: Growth inhibitory activity against CNS cancer SF-268 cell line was determined; conditions: Homo sapiens
NCI-H460 [4] = assay: Growth inhibitory activity against non small cell lung cancer H460 cell line was determined; conditions: Homo sapiens
SF-268 [5] = assay: In vitro percent of proliferation of vehicle treated SF-268 human CNS cell lines was determined at 0.0010 M concentration
RPMI-8226 = assay: Growth inhibitory activity against Leukemia RPMI-8226 cell line was determined; conditions: Homo sapiens
786-0 = assay: Growth inhibitory activity against Renal cancer 786-0 cell line was determined; conditions: Homo sapiens
MCF7 [6] = assay: In vitro percent of proliferation of vehicle treated MCF-7 human breast cell lines was determined at 0.0010 M concentration
HCT-15 = assay: Growth inhibitory activity against colon cancer HCT-15 cell line was determined; conditions: Homo sapiens
RXF 393 = assay: Growth inhibitory activity against Renal cancer RXF 393 cell line was determined; conditions: Homo sapiens
SK-MEL-28 = assay: Growth inhibitory activity against Melanoma SK-MEL-28 cell line was determined; conditions: Homo sapiens
PC-3 = assay: Growth inhibitory activity against Prostate cancer PC-3 cell line was determined; conditions: Homo sapiens
TK-10 = assay: Growth inhibitory activity against Renal cancer TK-10 cell line was determined; conditions: Homo sapiens
SF-295 = assay: Growth inhibitory activity against CNS cancer SF-295 cell line was determined; conditions: Homo sapiens
NCI-H23 = assay: Growth inhibitory activity against non small cell lung cancer NCI-H23 cell line was determined; conditions: Homo sapiens
SN12C = assay: Growth inhibitory activity against Renal cancer SN12C cell line was determined; conditions: Homo sapiens
OVCAR-5 = assay: Growth inhibitory activity against Ovarian cancer OVCAR-5 cell line was determined; conditions: Homo sapiens
SK-OV-3 = assay: Growth inhibitory activity against Ovarian cancer SK-OV-3 cell line was determined; conditions: Homo sapiens
NCI-H226 = assay: Growth inhibitory activity against non small cell lung cancer NCI-H226 cell line was determined; conditions: Homo sapiens
COLO 205 = assay: Growth inhibitory activity against colon cancer COLO 205 cell line was determined; conditions: Homo sapiens
KM12 = assay: Growth inhibitory activity against colon cancer KM12 cell line was determined; conditions: Homo sapiens
K562 = assay: Growth inhibitory activity against Leukemia K-562 cell line was determined; conditions: Homo sapiens
SNB-19 = assay: Growth inhibitory activity against CNS cancer SNB-19 cell line was determined; conditions: Homo sapiens
SR = assay: Growth inhibitory activity against Leukemia SR cell line was determined; conditions: Homo sapiens
HOP-92 = assay: Growth inhibitory activity against non small cell lung cancer HOP-92 cell line was determined; conditions: Homo sapiens
SF-539 = assay: Growth inhibitory activity against CNS cancer SF-539 cell line was determined; conditions: Homo sapiens
HCC 2998 = assay: Growth inhibitory activity against colon cancer HCC2998 cell line was determined; conditions: Homo sapiens
UACC-257 = assay: Growth inhibitory activity against Melanoma UACC-257 cell line was determined; conditions: Homo sapiens
NCI/ADR-RES = assay: Growth inhibitory activity against Breast cancer NCI/ADR-RES cell line was determined; conditions: Homo sapiens
A498 = assay: Growth inhibitory activity against Renal cancer A498 cell line was determined; conditions: Homo sapiens
A549 = assay: Growth inhibitory activity against non small cell lung cancer A549/ATCC cells; conditions: Homo sapiens
UACC-62 = assay: Growth inhibitory activity against Melanoma UACC-62 cell line was determined; conditions: Homo sapiens
HT-29 = assay: Growth inhibitory activity against colon cancer HT-29 cell line was determined; conditions: Homo sapiens
CCRF-CEM = assay: Growth inhibitory activity against Leukemia CCRF-CEM cell line was determined; conditions: Homo sapiens
CAKI-1 [7] = assay: Growth inhibitory activity against Renal cancer CAKI-1 cell line was determined; conditions: Homo sapiens
M14 = assay: Growth inhibitory activity against Melanoma M14 cell line was determined; conditions: Homo sapiens
OVCAR-4 = assay: Growth inhibitory activity against Ovarian cancer OVCAR-4 cell line was determined; conditions: Homo sapiens
MDA-MB-435 = assay: Growth inhibitory activity against Breast cancer MDA-MB-435 cell line was determined; conditions: Homo sapiens
CAKI-1 [8] = assay: Growth inhibitory activity against Renal cancer CAKI-1 cell line […]; conditions: Homo sapiens
SNB-75 = assay: Growth inhibitory activity against CNS cancer SNB-75 cell line was determined; conditions: Homo sapiens

For `CCOC(=O)CNC(=O)c1ccccc1Nc1ccnc(C(F)(F)F)c1`, which GI50 (BT-549) is on record?
Its GI50 is 36 µM.

What about the GI50 (MCF7 [1]) of the same molecule?
Its GI50 is 25 µM.

What about the GI50 (HL-60) of the same molecule?
The GI50 was 33 µM.

What about the GI50 (OVCAR-3) of the same molecule?
The GI50 was 24 µM.

What about the GI50 (Hs-578T) of the same molecule?
Its GI50 is 46 µM.

What about the GI50 (MDA-MB-231) of the same molecule?
Its GI50 is 24 µM.

What about the GI50 (NCI-H322M) of the same molecule?
The GI50 was 32 µM.

And the GI50 (LOX IMVI)?
Its GI50 is 17 µM.

What about the GI50 (DU-145) of the same molecule?
Its GI50 is 27 µM.

And the GI50 (SW-620)?
Its GI50 is 20 µM.

What about the GI50 (MOLT-4) of the same molecule?
The GI50 was 16 µM.

What about the Proliferation (NCI-H460 [2]) of the same molecule?
Its Proliferation is 19%.

What about the GI50 (OVCAR-8) of the same molecule?
The GI50 was 26 µM.

And the GI50 (HOP-62)?
Its GI50 is 21 µM.

What about the GI50 (SK-MEL-5) of the same molecule?
The GI50 was 10 µM.

What about the GI50 (NCI-H522) of the same molecule?
The GI50 was 22 µM.

What about the GI50 (HCT-116) of the same molecule?
The GI50 was 21 µM.

And the GI50 (ACHN)?
Its GI50 is 34 µM.

And the GI50 (U-251)?
Its GI50 is 18 µM.

And the GI50 (EKVX)?
The GI50 was 31 µM.

And the GI50 (SF-268 [3])?
The GI50 was 20 µM.

And the GI50 (NCI-H460 [4])?
The GI50 was 20 µM.

And the Proliferation (SF-268 [5])?
Its Proliferation is 59%.

What about the GI50 (RPMI-8226) of the same molecule?
Its GI50 is 11 µM.

And the GI50 (786-0)?
Its GI50 is 29 µM.

And the Proliferation (MCF7 [6])?
The Proliferation was 60%.

What about the GI50 (HCT-15) of the same molecule?
The GI50 was 29 µM.

And the GI50 (RXF 393)?
Its GI50 is 19 µM.

And the GI50 (SK-MEL-28)?
The GI50 was 23 µM.

And the GI50 (PC-3)?
Its GI50 is 22 µM.

And the GI50 (TK-10)?
Its GI50 is 37 µM.

What about the GI50 (SF-295) of the same molecule?
Its GI50 is 71 µM.

What about the GI50 (NCI-H23) of the same molecule?
The GI50 was 22 µM.

And the GI50 (SN12C)?
Its GI50 is 24 µM.

And the GI50 (OVCAR-5)?
Its GI50 is 26 µM.

And the GI50 (SK-OV-3)?
Its GI50 is 29 µM.

And the GI50 (NCI-H226)?
The GI50 was 100 µM.

What about the GI50 (COLO 205) of the same molecule?
Its GI50 is 19 µM.

What about the GI50 (KM12) of the same molecule?
The GI50 was 27 µM.

And the GI50 (K562)?
The GI50 was 18 µM.

What about the GI50 (SNB-19) of the same molecule?
Its GI50 is 30 µM.

What about the GI50 (SR) of the same molecule?
Its GI50 is 17 µM.

What about the GI50 (HOP-92) of the same molecule?
Its GI50 is 0.05 µM.

And the GI50 (SF-539)?
Its GI50 is 28 µM.

What about the GI50 (HCC 2998) of the same molecule?
Its GI50 is 71 µM.

What about the GI50 (UACC-257) of the same molecule?
The GI50 was 69 µM.

And the GI50 (NCI/ADR-RES)?
Its GI50 is 51 µM.

What about the GI50 (A498) of the same molecule?
The GI50 was 64 µM.

What about the GI50 (A549) of the same molecule?
The GI50 was 29 µM.

What about the GI50 (UACC-62) of the same molecule?
Its GI50 is 17 µM.

And the GI50 (HT-29)?
Its GI50 is 29 µM.

What about the GI50 (CCRF-CEM) of the same molecule?
Its GI50 is 2.2 µM.

And the GI50 (CAKI-1 [7])?
Its GI50 is 16 µM.

What about the GI50 (M14) of the same molecule?
Its GI50 is 25 µM.

And the GI50 (OVCAR-4)?
Its GI50 is 35 µM.

What about the GI50 (MDA-MB-435) of the same molecule?
Its GI50 is 39 µM.

What does the source list for `O=C(Oc1ccccc1Cl)c1ccccc1Nc1ccnc(C(F)(F)F)c1`?
GI50 (BT-549): 0.34 µM; GI50 (MCF7 [1]): 0.28 µM; GI50 (HL-60): 0.47 µM; GI50 (OVCAR-3): 0.22 µM; GI50 (Hs-578T): 0.32 µM; GI50 (MDA-MB-231): 0.32 µM; GI50 (NCI-H322M): 4.8 µM; GI50 (LOX IMVI): 0.02 µM; GI50 (DU-145): 4.3 µM; GI50 (SW-620): 0.36 µM; GI50 (MOLT-4): 0.02 µM; Proliferation (NCI-H460 [2]): 3%; GI50 (OVCAR-8): 0.24 µM; GI50 (HOP-62): 2.7 µM; GI50 (SK-MEL-5): 0.26 µM; GI50 (NCI-H522): 0.51 µM; GI50 (HCT-116): 1.8 µM; GI50 (ACHN): 0.28 µM; GI50 (U-251): 0.27 µM; GI50 (EKVX): 8.6 µM; GI50 (SF-268 [3]): 0.22 µM; GI50 (NCI-H460 [4]): 0.66 µM; Proliferation (SF-268 [5]): 17%; GI50 (RPMI-8226): 0.24 µM; GI50 (786-0): 0.25 µM; Proliferation (MCF7 [6]): 6%; GI50 (HCT-15): 0.22 µM; GI50 (PC-3): 0.3 µM; GI50 (TK-10): 0.65 µM; GI50 (SF-295): 0.24 µM; GI50 (NCI-H23): 0.25 µM; GI50 (SN12C): 0.33 µM; GI50 (OVCAR-5): 0.46 µM; GI50 (SK-OV-3): 8 µM; GI50 (NCI-H226): 0.29 µM; GI50 (KM12): 0.33 µM; GI50 (K562): 0.05 µM; GI50 (SNB-19): 7.4 µM; GI50 (SR): 0.03 µM; GI50 (HOP-92): 0.02 µM; GI50 (SF-539): 0.58 µM; GI50 (HCC 2998): 2.2 µM; GI50 (CAKI-1 [8]): 0.29 µM; GI50 (NCI/ADR-RES): 0.32 µM; GI50 (A498): 3.9 µM; GI50 (A549): 0.73 µM; GI50 (UACC-62): 0.31 µM; GI50 (HT-29): 0.39 µM; GI50 (SNB-75): 0.68 µM; GI50 (CCRF-CEM): 0.03 µM; GI50 (M14): 0.03 µM; GI50 (OVCAR-4): 0.26 µM; GI50 (MDA-MB-435): 0.13 µM
